Laboratory results published in patent US6080746A, “Methods and compositions for the prophylaxis and treatment of cytomegalovirus infections” (priority 1991, dated 2000).
≈ marks a conversion by molar mass, not a printed value.

Columns and labels:
human CMV [1] = experiment: Intravitreal human CMV infection in pigmented rabbits, intravitreal treatment; assay type: in vivo; parameters: key to retinal pathology level: 1-2+: focal hemmorhages and development of localized retinal necrosis; key to Vitritis scores: 1-2+: mild; key to vitritis: 2+: mild vitritis
Protocol: Animal models for human CMV disease were prepared by inoculating human CMV by intravitreal injection into pigmented rabbits. The animals developed in 3-4 days post inoculation a mild to moderate vitritis, focal retinal microhemorrhages, and localized retinal necrosis.
Dosages of 2'-CdG of various amounts in 100 μl of sterile water were injected into rabbit models beginning on day 3 post inoculation and repeated on day 5 and day 7N.
Development and resolution of HCMV intraocular disease in the 80 μg therapy group was similar to disease development in the 100 μg therapy group as described below.
Seven pigmented rabbits were infected with human CMV by intravitreal injection. Beginning on day 3 PI, these animals received 3 successive injections of 100 μg 2'CdG in 50 μl on day 3, 4, and 5 PI. […] Vitritis scores in these animals were 1-2+ (mild) and retinal pathology was reduced to 1-2+ level (focal hemmorhages and development of localized retinal necrosis). […] Initial virus recovery assays indicate that human CMV titers were reduced to 0 or 1 log by day 2 post therapy.

CMV [2] = experiment: Intravitreal injection for a week, tolerability and antiviral effect; assay type: in vivo; conditions: 100 μg/kg every 48 hours intravitreally for a week
Description: Effective dosages may be administered also in sustained release dosage form.

human CMV [3] = experiment: Intravitreal human CMV infection in pigmented rabbits, intravitreal treatment; assay type: in vivo; parameters: key to vitritis, maximum development: 1-2+: mild; conditions: 80 μl (so in the source) of 2'-CdG
CMV [4] = experiment: Reduction of CPE in CMV-infected MRC5 cell monolayer cultures (Tables 4 and 5); assay type: cell-based; conditions: Human betaherpesvirus 5, MRC5, read-out: Reduction (%) of CPE by D-2'-CDG at Time of Virus Harvest
Protocol: (§1) The effectiveness of racemic 2'-CdG and of D-2'-CdG on CMV yields in MRC5 cell monolayer cultures was determined by a plaque assay with the results set forth in Tables 4 and 5:
(§2) ^a Drug treatment began immediately following the virus adsorption
(§3) ^a Drug treatment began immediately following the 1 1/2 hour

CMV [5] = experiment: CMV yields in MRC5 cell monolayer cultures by plaque assay (Tables 4 and 5); assay type: cell-based; conditions: for CMV Yield: virus control 1.1 × 10^5; for CMV Yield (log10): virus control 5.1
Protocol: as §1, §2, §3

MRC5 cells = experiment: Drug cytotoxicity (gross morphology) in MRC5 cell monolayer cultures (Tables 4 and 5); assay type: cell-based, human
Protocol: as §1, §2, §3

CMV [6] = experiment: MIC50 against CMV in MRC5 cells; assay type: cell-based
CMV [7] = experiment: ED50 antiviral efficacy against CMV in human foreskin fibroblast cells; assay type: cell-based; conditions: Human betaherpesvirus 5, read-out: ED50 (median dose at which 50% antiviral efficacy against CMV is produced)
Protocol: The ED50 value (median dose at which 50% antiviral efficacy against CMV is produced) was 0.06 μg/mL for D-2'-CdG and 0.20 for DHPG in human foreskin fibroblast cells.

human CMV [8] = experiment: Intravitreal human CMV infection in New Zealand white rabbits, intravitreal treatment; assay type: in vivo; conditions: 100 μg in 100 μl intravitreal, 48-hour intervals from day 4
Description: The symptoms included vitritis, iritis, retinal pathology (micro hemorrhages and focal necrosis of the retinal
surface), corneal stromal haze and neovascularization, and corneal endothelial pigmented precipitates. […] The intravitreal route offers some significant advantages for intraocular infections including: 1) delivery of maximal concentrations of drug to the desired site of action; 2) increased potential for sustained release (i.e. longer half-life, T1/2) of the drug; and 3) reduced potential for systemic toxicity.

[9] = tested on: human cytomegalovirus (strain AD 169); experiment: Inhibition of human cytomegalovirus in MRC5 cells by plaque reduction assay (reduction of CPE, MIC50; Table 1); assay type: cell-based; conditions: Human betaherpesvirus 5, MRC5, treatment 0 hr postinfection, read-out: Reduction (%) of CPE at Time of Harvest
Description: (§4) In each case, drug treatment began 0 hr. postinfection.

[10] = tested on: human cytomegalovirus (strain AD 169); experiment: CMV yield in MRC5 cells (Table 1); assay type: cell-based
Description: as §4

[11] = tested on: human diploid embryonic lung cells (MRC5); experiment: Drug cytotoxicity (gross morphology) in MRC5 cells (Table 1); conditions: 320 μg/ml
Description: Also evaluated under the same conditions were prior art drugs Ara-A and ganciclovir (DHPG). In each case, drug treatment began 0 hr. postinfection.

HCMV = experiment: Virus yield-reduction assay, combination with DHPG on HCMV replication in MRC5 cells (Table 2); assay type: cell-based, human CMV; conditions: (±)-2'-CDG 0
Description: Effect of Combination Treatment^a With (±)-2'-CDG and
DHPG on HCMV Replication in MRC5 Cells
(Virus Yield-Reduction Assay)

cytomegalovirus = conditions: in vivo; cited from earlier work
[12] = 40 μg per 100 μl injection, intravitreal
[13] = 100 μg in 50 μl daily, day 3, 4 and 5 PI

## Nc1nc2c(ncn2[C@@H]2C[C@H](CO)[C@@H](O)C2)c(=O)[nH]1 [2'-CdG]
Human CMV [1]; [12]
  Retinal necrosis at sacrifice: evident in all animals at sacrifice
  retinal hemorrhages: focal retinal hemorrhages
  vitritis: 2+
Human CMV [1]; 40 μg per 100 μl injection, intravitreal, from day 3 post inoculation
  controlling the development of disease: moderately effective in controlling the development of disease
Human CMV [1]; [13]
  Vitritis scores: 1-2+
  human CMV-induced vitritis and retinal pathology (preliminary): effective in reducing the development of human CMV-induced vitritis and retinal pathology
  progressive disease by day 7 post inoculation: had not developed the progressive disease
  retinal pathology level: 1-2+
Human CMV [1]; 2'CdG at two day intervals
  progressive disease: progressive disease that is observed
Human CMV [1]; lower concentration 2'CdG therapies
  moderate to severe retinal necrosis and detachment: observed in the lower concentration 2'CdG therapies
CMV [2]
  antiviral effectiveness: antivirally effective
  tolerability: well tolerated
Human CMV [3]; intravitreal
  development of vitritis and of retinal pathology: effective in reducing the development of vitritis (1-2+ maximum development) and in altering the observed development of retinal pathology
  vitritis, maximum development: 1-2+
Human CMV [3]; days 3, 4 and 5 post inoculation
  Retinal blood vessel engorgement and focal microhemorrhages: Retinal blood vessel engorgement was evident and focal microhemorrhages were present

## Nc1nc2c(ncn2[C@@H]2C[C@H](CO)[C@@H](O)C2)c(=O)[nH]1 [D-2'-CdG]
CMV [4]; Table 5, 0.1 μM
  inhibition at 0.1 µM: 0%
CMV [4]; Table 5, 0.32 μM
  inhibition at 0.32 µM: 0%
CMV [4]; Table 5, 1.0 μM
  inhibition at 1 µM: 10%
CMV [4]; Table 5, 3.2 μM
  inhibition at 3.2 µM: 10%
CMV [4]; Table 5, 10 μM
  inhibition at 10 µM: 25%
CMV [4]; Table 5, 32 μM
  inhibition at 32 µM: 50%
CMV [4]; Table 5, 100 μM
  inhibition at 100 µM: 50%
CMV [5]; Table 5, 0.1 μM
  CMV Yield: 3.8 × 10^4 PFU/mL
  CMV Yield (log10): 4.6 log10 PFU/mL
CMV [5]; Table 5, 0.32 μM
  CMV Yield: 1.4 × 10^4 PFU/mL
  CMV Yield (log10): 4.1 log10 PFU/mL
CMV [5]; Table 5, 1.0 μM
  CMV Yield: 5.4 × 10^3 PFU/mL
  CMV Yield (log10): 3.7 log10 PFU/mL
CMV [5]; Table 5, 3.2 μM
  CMV Yield: 8.4 × 10^2 PFU/mL
  CMV Yield (log10): 2.9 log10 PFU/mL
CMV [5]; Table 5, 10 μM
  CMV Yield: 2 × 10^1 PFU/mL
  CMV Yield (log10): 1.3 log10 PFU/mL
CMV [5]; Table 5, 32 μM
  CMV Yield: 0 PFU/mL
CMV [5]; Table 5, 100 μM
  CMV Yield: 0 PFU/mL
MRC5 cells; Table 5, 0.1 μM
  Drug Cytotoxicity (gross morphology): 0
MRC5 cells; Table 5, 0.32 μM
  Drug Cytotoxicity (gross morphology): 0
MRC5 cells; Table 5, 1.0 μM
  Drug Cytotoxicity (gross morphology): 0
MRC5 cells; Table 5, 3.2 μM
  Drug Cytotoxicity (gross morphology): 0
MRC5 cells; Table 5, 10 μM
  Drug Cytotoxicity (gross morphology): 0
MRC5 cells; Table 5, 32 μM
  Drug Cytotoxicity (gross morphology): v. sl. toxicity
MRC5 cells; Table 5, 100 μM
  Drug Cytotoxicity (gross morphology): slight toxicity
MRC5 cells; Table 5, 320 μM
  Drug Cytotoxicity (gross morphology): toxic
CMV [6]; Human betaherpesvirus 5
  IC50: < 0.029 µg/mL
CMV [6]; same conditions
  MIC50 relative to the MIC50 of DL-2'-CdG: about half (or less)
CMV [7]
  EC50: 0.06 µg/mL (≈ 0.226 µM)
Human CMV [8]
  clinical outcome compared with ganciclovir (DHPG): clinically better than treatment with ganciclovir (DHPG)
  development of retinal pathology, severity of vitritis and iritis vs placebo: effective in reducing the development of retinal pathology and in reducing the severity of the vitritis and iritis

## Nc1nc(O)c2ncn(COC(CO)CO)c2n1 [DHPG, dihydroxy propoxymethyl guanine, reference compound]
[9]; 0.1 μg/ml
  inhibition at 0.1 µg/mL: 0%
[9]; 0.32 μg/ml
  inhibition at 0.32 µg/mL: 5%
[9]; 1.0 μg/ml
  inhibition at 1 µg/mL: 30%
[9]; 3.2 μg/ml
  inhibition at 3.2 µg/mL: 60%
[9]; 10 μg/ml
  inhibition at 10 µg/mL: 95%
[9]; 32 μg/ml
  inhibition at 32 µg/mL: 100%
[9]; 100 μg/ml
  inhibition at 100 µg/mL: 100%
[9]; 320 μg/ml
  inhibition at 320 µg/mL: 100%
[10]; 0.1 μg/ml, virus control 5.5 (DHPG 5.3)
  CMV Yield: 4.7 log10 CCID50 /ml
[10]; 0.32 μg/ml, virus control 5.5 (DHPG 5.3)
  CMV Yield: 4.6 log10 CCID50 /ml
[10]; 1.0 μg/ml, virus control 5.5 (DHPG 5.3)
  CMV Yield: 3.6 log10 CCID50 /ml
[10]; 3.2 μg/ml, virus control 5.5 (DHPG 5.3)
  CMV Yield: 2.3 log10 CCID50 /ml
[10]; 10 μg/ml, virus control 5.5 (DHPG 5.3)
  CMV Yield: 1.0 log10 CCID50 /ml
[10]; 32 μg/ml, virus control 5.5 (DHPG 5.3)
  CMV Yield: 0 log10 CCID50 /ml
[10]; 100 μg/ml, virus control 5.5 (DHPG 5.3)
  CMV Yield: 0 log10 CCID50 /ml
[10]; 320 μg/ml, virus control 5.3
  CMV Yield: 0 log10 CCID50 /ml
[11]
  Drug Cytotoxicity (gross morphology): sl. toxicity
HCMV; DHPG 1.0 μM
  Reduction in CMV Yield: 0.5 Log10 PFU/ML
HCMV; DHPG 3.2 μM
  Reduction in CMV Yield: 1.3 Log10 PFU/ML
HCMV; DHPG 10.0 μM
  Reduction in CMV Yield: 1.8 Log10 PFU/ML
CMV [7]
  EC50: 0.2 µg/mL (≈ 0.784 µM)
cytomegalovirus
  toxicity: dose-limiting toxicity
